For one assay, the target named is T1, BTK (Homo sapiens, UniProt Q06187).
T1 construct: purchased Invitrogen PV3190
The assay can be described thus: BTK kinase inhibitory activity, Z-Lyte Kinase Assay Kit. Format: biochemical. Particulars: 60 minutes at room temperature. The method, then:
(§1) The compounds prepared in Examples 1 to 5 were tested for JAK3 and BTK kinase inhibitory activity. Kinase inhibitory activity was measured by using Z-Lyte Kinase Assay Kit (Invitrogen), and JAK3 and BTK enzymes were purchased from Invitrogen (PV3855, PV3190).
(§2) Specifically, the compounds of Examples 1 to 5 were diluted with an aqueous solution of 4% DMSO to obtain solutions with concentrations in the range of 1 to 0.0001 μM. Each kinase was diluted to 1 to 10 ng/assay, and ATP was diluted to form a kinase buffer (50 mM HEPES, pH 7.4; 10 mM MgCl2; 1 mM EGTA; and 0.01% BRIJ-35) by calculating an approximate Kd value. The assays were performed in 384-well polystyrene flat-bottomed plates. Peptide substrate having a suitable concentration, 10 μL of mixed kinase solution and 5 μL of ATP solution having a concentration of 5 to 300 μM were added to 5 μL of the diluted solution of the compound, and allowed to react in a mixer for 60 minutes at room temperature. After 60 minutes, 10 μL of fluorescent labeling reagents was added to each mixture so as to allow fluorescent labeling of peptide substrates, followed by adding a finishing solution to complete the reaction. The fluorescence level was determined with a Molecular Device at 400 nm (excitation filter) and 520 nm (emission filter). The kinase inhibitory activities of the compounds were calculated in phosphorylation rates between 0˜400% against the control group (staurosporine or each of kinase inhibitor) according to the reference protocol of the kit, and percentage inhibition was determine and plotted against concentration (x-axis) to calculate 50% inhibitory concentration (IC50). The calculation and analysis of IC50 were carried out by using Microsoft Excel.

Another assay deals with T2, JAK3 (Homo sapiens, UniProt P52333).
T2 construct: purchased Invitrogen PV3855
The experiment in a line: JAK3 kinase inhibitory activity, Z-Lyte Kinase Assay Kit. Format: biochemical. Conditions: 60 minutes at room temperature. The method, then:
as §1, §2

T2 sequence (P52333 781-1124 limits assumed): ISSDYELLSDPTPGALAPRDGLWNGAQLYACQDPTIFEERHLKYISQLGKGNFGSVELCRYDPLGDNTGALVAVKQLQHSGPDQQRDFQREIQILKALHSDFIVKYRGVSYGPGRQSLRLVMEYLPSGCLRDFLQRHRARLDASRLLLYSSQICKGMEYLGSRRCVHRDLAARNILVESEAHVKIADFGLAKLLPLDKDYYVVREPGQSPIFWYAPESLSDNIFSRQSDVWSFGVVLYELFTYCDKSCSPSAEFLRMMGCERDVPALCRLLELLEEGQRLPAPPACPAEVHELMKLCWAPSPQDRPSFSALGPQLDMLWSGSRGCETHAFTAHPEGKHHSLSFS
T1 sequence (Q06187 whole entry): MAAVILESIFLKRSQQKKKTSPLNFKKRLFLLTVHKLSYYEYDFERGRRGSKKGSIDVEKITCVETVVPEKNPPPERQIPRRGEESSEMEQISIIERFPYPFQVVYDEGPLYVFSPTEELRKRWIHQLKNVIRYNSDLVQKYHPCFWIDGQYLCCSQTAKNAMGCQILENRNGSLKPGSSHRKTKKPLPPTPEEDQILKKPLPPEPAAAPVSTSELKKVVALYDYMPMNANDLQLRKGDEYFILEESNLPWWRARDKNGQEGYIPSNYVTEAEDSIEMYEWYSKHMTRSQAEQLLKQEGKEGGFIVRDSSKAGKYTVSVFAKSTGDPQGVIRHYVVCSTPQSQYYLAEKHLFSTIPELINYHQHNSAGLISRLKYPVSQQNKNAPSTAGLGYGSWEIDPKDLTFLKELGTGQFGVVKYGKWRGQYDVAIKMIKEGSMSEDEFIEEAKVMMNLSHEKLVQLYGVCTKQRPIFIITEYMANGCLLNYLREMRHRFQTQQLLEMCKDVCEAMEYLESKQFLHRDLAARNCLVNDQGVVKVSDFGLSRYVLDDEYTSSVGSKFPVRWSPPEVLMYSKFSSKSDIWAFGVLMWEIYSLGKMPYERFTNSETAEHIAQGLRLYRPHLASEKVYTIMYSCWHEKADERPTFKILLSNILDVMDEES

One may read the IC50 as the concentration at which inhibition is half-maximal. Consider `C=CC(=O)Nc1cccc(Oc2cccn3nc(Nc4ccc(N5CCN(C)CC5)cc4)nc23)c1` [Example 1, N-(3-(2-(4-(4-methylpiperazin-1-yl)phenylamino)-[1,2,4]triazolo[1,5-a]pyridin-8-yloxy)phenyl)acrylamide], for which the IC50 on BTK (class symbol) is not above 100 nM; on BTK (numeric value in parentheses), 73 nM; against JAK3 (class symbol) it was not above 100 nM; on JAK3 (numeric value in parentheses), 9 nM.

With `C=CC(=O)Nc1cccc(Oc2cccn3nc(Nc4ccc(NC5CCN(C)CC5)c(F)c4)nc23)c1` [Example 2, N-(3-(2-(3-fluoro-4-(1-methylpiperidin-4-ylamino)phenylamino)-[1,2,4]triazolo[1,5-a]pyridin-8-yloxy)phenyl)acrylamide], the IC50 is 100 to 500 nM at BTK (class symbol) and not above 100 nM against JAK3 (class symbol).

Regarding `C=CC(=O)Nc1cccc(Oc2cccn3nc(Nc4ccc(CN(C)C)cc4)nc23)c1` [Example 3, N-(3-(2-(4-((dimethylamino)methyl)phenylamino)-[1,2,4]triazolo[1,5-a]pyridin-8-yloxy)phenyl)acrylamide], the half-inhibitory concentration (IC50) on BTK (class symbol) was 100 to 500 nM; on JAK3 (class symbol), not above 100 nM.

Turning to `C=CC(=O)Nc1cccc(Oc2cccn3nc(Nc4ccc(C(=O)N5CCN(C)CC5)cc4)nc23)c1` [Example 4, N-(3-(2-(4-(4-methylpiperazin-1-carbonyl)phenylamino)-[1,2,4]triazolo[1,5-a]pyridin-8-yloxy)phenyl)acrylamide], the IC50 against BTK (class symbol) is 100 to 500 nM; on JAK3 (class symbol), not above 100 nM.

Turning to `C=CC(=O)Nc1cccc(Oc2cccn3nc(Nc4ccc(N5CCN(C(C)C)CC5)cc4)nc23)c1` [Example 5, N-(3-(2-(4-(4-isopropylpiperazin-1-yl)phenylamino)-[1,2,4]triazolo[1,5-a]pyridin-8-yloxy)phenyl)acrylamide], the IC50 at BTK (class symbol) was 500 to 1000 nM; against JAK3 (class symbol), not above 100 nM.

For the origin of these results see patent US20140364438A1, “TRIAZOLOPYRIDINE DERIVATIVES AS A TYROSINE KINASE INHIBITOR” (HANMI PHARM. CO., LTD., priority 2012, published 2014).
